Assays:
[1] = study SB742457/005, pharmacokinetics in elderly subjects; type: in vivo, human; settings: for Cmax: human, plasma
Protocol: (§1) The 35 mg dose was evaluated in four Phase 2 trials and is the dose being evaluated in a Phase 3 pivotal study. In the AZ310866 Phase 2b study, there was a dose dependent increase in efficacy vs placebo in the ADAS-Cog score between 15 mg (−0.7 units) and 35 mg (−1.7 units). […] These benefits need to be balanced with the potential for adverse events, in particular, the CNS toxicity observed in dogs and rabbits described below. […] In the 26-week dog study, one high-dose dog had seizures on Day 55 and was euthanized. A second dog had seizures on Day 59 and survived. For the second dog, plasma samples taken approximately 5 minutes and two hours after the seizure (4 and 6 hours post dose on Day 59) had SB742457 concentrations of 1570 and 1440 ng/mL, respectively. […] In study SB742457/005, elderly subjects received 35 mg once daily of 3-phenylsulfonyl-8-piperazinyl-1yl-quinoline for 28 days. […] This mean value is approximately ¼th the Cmax value observed in dogs with seizures. The maximum concentration that may be achieved is approximately ½ the Cmax value observed in the 2 dogs with seizures. To further understand the risk to humans, SimCYP population PBPK modelling was used to predict brain concentrations of 3-phenylsulfonyl-8-piperazinyl-1yl-quinoline in dogs exposed to the concentrations linked with seizures, and to compare these with predicted human brain concentrations at the clinical dose of 35 mg. The simulations predicted that the human steady-state brain concentrations following repeat administration with 35 mg would be approximately 40-fold lower than the brain concentrations associated with seizures in dogs. Assuming linear pharmacokinetics, the human steady-state brain concentrations with 70 mg would be approximately 20-fold lower than the brain concentrations associated with convulsions in dogs. […] Furthermore, in Phase 2 studies encompassing 1024 patients with Alzheimer's disease at doses of 5 mg to 35 mg per day, two subjects reported seizures, both in the Phase 2b study with 3-phenylsulfonyl-8-piperazinyl-1yl-quinolone administered as adjunctive therapy to donepezil. One subject was in the placebo group and one in the 15 mg 3-phenylsulfonyl-8-piperazinyl-1yl-quinoline group. The subject receiving 3-phenylsulfonyl-8-piperazinyl-1yl-quinoline was hospitalized with a suspicion of a TIA and experienced a seizure, which was reported by the PI as not attributable to study drug.

mice = assay: nonclinical studies, seizures in mice; type: in vivo
[2] = system: healthy rat brain glucose utilization; assay: FDG-PET/CT brain glucose utilization in healthy rats; type: in vivo; settings: healthy young CD rats, 10 mg/kg or 20 mg/kg 3 h prior to FDG; pairwise comparisons did not reach statistical significance
Description: 3-phenylsulfonyl-8-piperazinyl-1yl-quinoline is a potent antagonist of the 5-hydroxytryptamine 6 (5-HT6) serotonin receptor. Reduced glucose utilization is an early sign of decreasing brain function in AD. Altered neuronal glucose uptake assessed by flurodeoxyglucose-positron emission tomography (FDG-PET) may be useful as a diagnostic foundation for identifying patients with AD. This study evaluates 3-phenylsulfonyl-8-piperazinyl-1yl-quinoline at clinically relevant doses on healthy rat brain glucose utilization using FDG-PET/CT.
Methods: Healthy, young CD rats were pre-dosed with vehicle (1% methylcellulose, w/v) or RVT-101 (10 mg/kg or 20 mg/kg) 3 h prior to FDG (18.1±3.5 MBq, i.v.). Brain FDG standard uptake values (SUV) were quantified using scanning in single 20 min list mode (BioPET/CT, Sedecal) starting 30 min post FDG dosing. PET/CT scans were analyzed as a single time frame summarizing counts over 20 min. All experiments were completed in an accredited facility according to NIH guidelines. PET/CT imaging data were analyzed using Student's t-test, cluster analysis, and multivariate analysis of variance (MANOVA) using a subset of SUV from 5 cluster-identified regions.

rats = assay: nonclinical studies, seizures in rats; type: in vivo
healthy subjects = assay: clinical studies with healthy subjects (n=225), seizures; type: in vivo; settings: single doses of up to 175 mg and repeat doses of up to 50 mg for 13 days
Protocol: (§2) The 35 mg dose was evaluated in four Phase 2 trials and is the dose being evaluated in a Phase 3 pivotal study. In the AZ310866 Phase 2b study, there was a dose dependent increase in efficacy vs placebo in the ADAS-Cog score between 15 mg (−0.7 units) and 35 mg (−1.7 units). […] These benefits need to be balanced with the potential for adverse events, in particular, the CNS toxicity observed in dogs and rabbits described below. […] In the 26-week dog study, one high-dose dog had seizures on Day 55 and was euthanized. A second dog had seizures on Day 59 and survived. For the second dog, plasma samples taken approximately 5 minutes and two hours after the seizure (4 and 6 hours post dose on Day 59) had SB742457 concentrations of 1570 and 1440 ng/mL, respectively. […] In study SB742457/005, elderly subjects received 35 mg once daily of 3-phenylsulfonyl-8-piperazinyl-1yl-quinoline for 28 days. […] This mean value is approximately ¼th the Cmax value observed in dogs with seizures. The maximum concentration that may be achieved is approximately ½ the Cmax value observed in the 2 dogs with seizures. […]

[3] = system: patients with Alzheimer's disease; assay: AZ310866 Phase 2b study, ADAS-Cog score vs placebo; type: in vivo, human
Protocol: as §2

rabbits = assay: nonclinical studies, seizures in rabbits; type: in vivo
Protocol: as §2

[4] = rat maximal electroshock seizure threshold test; settings: in vivo, exposure at which seizure threshold was not decreased, read-out: extrapolated Cmax
Protocol: as §2

clinical = settings: human, in vivo
[5] = system: patients with Alzheimer's disease; assay: Phase 2 studies in 1024 patients with Alzheimer's disease, seizures; type: in vivo; settings: 15 mg group, Phase 2b study, adjunctive therapy to donepezil; reported as not attributable to study drug
Protocol: as §2

dogs = assay: in vivo; settings: dog
Protocol: as §1

in vivo = settings: dog
Protocol: as §1

For `O=S(=O)(c1ccccc1)c1cnc2c(N3CCNCC3)cccc2c1` [3-phenylsulfonyl-8-piperazinyl-1yl-quinoline], the Cmax ([1]; both sexes, 35 mg, elderly subjects, 35 mg once daily for 28 days, read-out: highest recorded Cmax) was 307 ng/mL, the Cmax ([1]; female, 35 mg, elderly females, 35 mg once daily for 28 days, read-out: mean Cmax) was 177 ng/mL and the “expected maximum concentration at 70 mg relative to the Cmax observed in the 2 dogs with seizures” value ([1]; human 70 mg vs dog) was “approximately ½”. The “expected mean Cmax at 70 mg relative to the Cmax observed in dogs with seizures” value ([1]; human 70 mg vs dog) was “approximately ¼”, the Cmax ([1]; oral, 70 mg, multiple dosing with 70 mg, extrapolated given linear human pharmacokinetics, read-out: expected maximum Cmax) was 714 ng/mL and the Cmax ([1]; oral, 70 mg, multiple dosing with 70 mg, extrapolated given linear human pharmacokinetics, read-out: expected mean Cmax) was ~360 ng/mL. The Cmax ([1]; male, 35 mg, elderly males, 35 mg once daily for 28 days, read-out: mean Cmax) was 181 ng/mL, the seizures (mice) was “not in rodents” and the “brain glucose uptake (FDG SUV)” value [2] was “trend of increased glucose uptake”. For the same compound, the seizures (rats) was “not in rodents”, the seizures (healthy subjects) was “no seizures were observed” and the “increase in efficacy vs placebo in the ADAS-Cog score” value ([3]; 15 mg) was −0.7 units. The “increase in efficacy vs placebo in the ADAS-Cog score” value ([3]; 35 mg) was −1.7 units, the seizures (rabbits; nonclinical studies) was “caused seizures” and the seizures (rabbits; single dose at 300 mg/kg, exceeded the maximum tolerated repeat-dose level) was “seizures were produced”. The Cmax [4] was 1890 ng/mL, the AUC (clinical) was ~3200 ng·h/mL and the AUC(0-inf) (clinical) was ~9250 ng·h/mL. For the same compound, the Cmax (clinical; Cmax) was ~293 ng/mL, the Cmax (clinical; mean Cmax) was ~180 ng/mL and the subjects reporting seizures [5] was “one”. For the same compound, the “plasma concentration associated with an increased seizure risk” value (dogs) was > 1570 ng/mL, the plasma concentrations achieved (dogs) was “up to 1937 ng/mL” and the seizures (dogs; 7.5 mg/kg/day) was “did not occur”. For the same compound, the Cmax (in vivo) was 1700 ng/mL, the concentration at 4 h post dose on Day 59 (in vivo) was 1570 ng/mL and the concentration at 6 h post dose on Day 59 (in vivo) was 1440 ng/mL.

From patent publication US20160324852A1, “COMPOSITIONS AND METHODS OF TREATING A NEURODEGENERATIVE DISEASE” (Axovant Sciences Ltd., priority 2015, published 2016)
